Laboratory results taken from patent publication US10300058B2, “Tyrosine kinase inhibitor and uses thereof” (Xuanzhu Pharma Co., Ltd., priority 2014, dated 2019).
pIC50: −log10 of the molar value. Like-named read-outs stand apart in the source and are kept apart here.

What was measured:
[1] = test system: H1975 cell (EGFR-T790M/L858R double mutation); assay: In vitro cytologic activity, Celltiter-Glo, H1975 cells; assay type: cell-based, human; conditions: for pIC50: Homo sapiens, NCI-H1975, 72 h, 72 h, Celltiter-Glo; for Selectivity (A431/H1975): ratio of IC50
Procedure: 1.1 Preparation of Cell Suspension
Culture medium was removed from culture bottle;
PBS was added to wash the cells; • pancreatin was added for digestion, and the cells were collected by centrifugation; • the cells were resuspended in a culture medium containing 10% fetal bovine serum, counted and adjusted to a concentration of 2×10^4/mL or 3×10^4/mL (cell viability must be greater than 90%); • the cell suspension was added to a 96-well plate, at 100 μL for each well, i.e., 2000/well for H1975 cell; 3000/well for A431 cell; and • the cells were cultured at 37° C. in 5% CO2 incubator overnight.
Dilution of a compound in DMSO (or water for injection) • (1) The compound was 5-fold diluted with DMSO from 10 mM to 2 mM, and then 4-fold diluted from 2 mM, to get 10 concentrations; • High control (HC, control without compound inhibition): 0.5% DMSO; • Low control (LC, control with compound inhibition): 1000 nM.
i. To each well, 99 μL growth medium containing 10% FBS was added, and then 1 μL diluted compound was added, the total volume of the well was […], and the final concentration of the compound was measured.
The test plate was left at room temperature, and equilibrated for 30 min. 80 μL culture medium was discarded. 60 μL CTG reagent (Celltiter-Glo kit) was added, and shaked for 2 min in a fast shaker, and was placed at room temperature for 10 min. The values were read by Envision instrument.

Pharmacokinetics in dog = assay type: in vivo, male Beagle dog; conditions: Beagle dog; for pharmacokinetic properties (conclusion in words): iv and po, Tables 13 and 14; for AUC(0-t) / clearance / Vd / Cmax / Tmax / bioavailability: male, plasma; for Vd: read-out: Vss; for bioavailability: read-out: F (absolute bioavailability)
Procedure: Test animal: male Beagle dog, 3 dogs/administration route/compound, weight: 7-12 kg.
Solvent for intraveneous injection (iv) of Compound 31: 20% DMF (N,N-dimethylformamide)+20% PEG400 (polyethylene glycol 400)+60% sterile water for injection
Compound 31 (15.40 mg) was weighed, dissolved in solvent for intraveneous injection ultrasonically, and mixed homogeneously under vortexing, to get a clear and transparent compound solution at a theoretical concentration of 0.5 mg/mL.
Solvent for intraveneous injection (iv) of Compound 2, 28: 5% DMSO+10% PEG400+85% (28% HP-β-CD)
Compound 2 (20.72 mg) and Compound 28 (16.16 mg) were weighed, respectively, dissolved by adding solvent for intraveneous injection, mixed homogeneously under vortexing, placed in a 50° C. constant temperature water bath for 20 min, and mixed homogeneously under vortexing to get a clear and transparent compound solution at a theoretical concentration of 0.5 mg/mL.
Solvent for intragastric administration (po) of Compound 2, 28, 31: 0.1% Tween 80+2% HPC (hydroxypropyl cellulose)
Preparation: HPC (hydroxypropyl cellulose) (20 g) was weighed, and slowly added to purified water (1000 mL) under stirring. Tween 80 (1 mL) was added, and the mixture was stirred until it became clear, to get a solvent for intragastric administration. Compound 2 (41.77 mg), Compound 31 (31.35 mg) and Compound 28 (31.10 mg) were weighed, respectively, solvent for intragastric administration was added, and the resultant mixture was placed in a tissue grinder, and ground at a speed of 1000 r/min. After homogeneous dispersion, the solution for intragastric administration was obtained.
For PO group: 0.167, 0.5, 1, 2, 4, 6, 8, 24 h after administration.
Blood collection: 400 μL whole blood was collected from vein of dog fore limb at each time point, added to an anticoagulation tube containing K2EDTA, and centrifuged at 8000 r/min, 4° C. for 6 min in a centrifuge to separate the plasma; the separated plasma was stored in a refrigerator at −80° C.
By means of protein precipitation, to 30 μL plasma, 200 μL internal standard (acetonitrile solution containing 50 ng/mL CNX-2006) was added; the resultant mixture was vortexted for 10 min at 1500 r/min, and centrifuged at 12000 r/min for 5 min; to a suitable amount of supernatant, a suitable amount of water was added; the resultant mixture was mixed homogeneously under vortexing and analyzed by LC-MS/MS.

EGFR T790M-L858R = EGFR T790M-L858R (Homo sapiens (Human), UniProt P00533, L858R/T790M); assay: Mobility Shift Assay, in vitro enzyme-inhibiting activity, EGFR T790M-L858R; assay type: biochemical; conditions: for pIC50: Km ATP; for Selectivity WT/T790M-L858R: ratio of IC50
Chain of EGFR T790M-L858R (P00533 25-1210 T790M/L858R): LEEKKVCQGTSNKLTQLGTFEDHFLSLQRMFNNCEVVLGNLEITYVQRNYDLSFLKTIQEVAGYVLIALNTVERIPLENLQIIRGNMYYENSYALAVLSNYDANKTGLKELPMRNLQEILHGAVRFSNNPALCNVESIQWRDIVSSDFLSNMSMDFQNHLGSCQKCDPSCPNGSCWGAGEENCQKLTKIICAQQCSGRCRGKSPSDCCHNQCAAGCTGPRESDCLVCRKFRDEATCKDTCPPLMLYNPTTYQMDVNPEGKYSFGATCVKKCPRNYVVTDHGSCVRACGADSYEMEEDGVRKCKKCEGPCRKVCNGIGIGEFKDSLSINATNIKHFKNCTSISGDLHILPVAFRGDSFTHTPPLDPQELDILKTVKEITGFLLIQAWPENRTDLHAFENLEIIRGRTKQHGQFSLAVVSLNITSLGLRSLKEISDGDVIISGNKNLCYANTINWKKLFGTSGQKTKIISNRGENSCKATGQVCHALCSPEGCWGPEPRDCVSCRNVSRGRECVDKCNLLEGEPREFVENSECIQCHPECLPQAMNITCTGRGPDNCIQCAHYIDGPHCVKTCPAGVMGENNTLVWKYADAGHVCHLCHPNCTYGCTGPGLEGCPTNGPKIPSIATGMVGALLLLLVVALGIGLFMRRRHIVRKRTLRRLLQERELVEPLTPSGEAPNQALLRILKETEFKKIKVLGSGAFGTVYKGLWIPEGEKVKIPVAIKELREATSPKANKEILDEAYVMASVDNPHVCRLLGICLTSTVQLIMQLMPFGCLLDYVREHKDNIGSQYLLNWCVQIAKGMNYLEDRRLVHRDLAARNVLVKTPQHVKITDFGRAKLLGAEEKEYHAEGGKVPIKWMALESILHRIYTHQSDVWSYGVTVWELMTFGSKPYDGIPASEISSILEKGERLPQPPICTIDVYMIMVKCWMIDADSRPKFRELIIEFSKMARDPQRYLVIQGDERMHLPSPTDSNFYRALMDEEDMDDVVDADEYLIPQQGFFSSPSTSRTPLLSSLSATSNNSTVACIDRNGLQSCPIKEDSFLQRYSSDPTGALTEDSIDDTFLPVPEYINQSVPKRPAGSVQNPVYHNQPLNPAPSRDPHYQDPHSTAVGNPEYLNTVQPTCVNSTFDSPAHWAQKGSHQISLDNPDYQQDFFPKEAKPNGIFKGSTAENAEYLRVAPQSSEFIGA
Procedure: (§1) 1. Preparation of Reagents
(§2) 2. Preparation of a Compound Solution
(§3) (1) To the second well of a 96-well plate, 5 μL 10 mM compound (dissolved in DMSO) was added, and 95 μL 100% DMSO was added to prepare 100 μL 0.5 mM compound.
(§4) (2) To other wells, 60 μL 100% DMSO was added. 20 μL compound from the second well was added to the third well, and 4-fold dilution was further performed to get 10 diluted concentrations.
(§5) (3) To the first well and the twelfth well of the 96-well plate, 100 μL 100% DMSO was separately added, and the two wells were used as control wells.
(§6) (4) 10 μL from each well of the 96-well plate was added to another 96-well plate, and 90 μL 1-fold kinase buffer was added.
(§7) (5) 5 μL from the 96-well plate was added to another 384-well plate, for example, transferred from A1 well of the 96-well plate to A1 and A2 wells of the 384-well plate, and transferred from A2 well of the 96-well plate to A3 and A4 wells of the 384-well plate, and so on.
(§8) To 384-well plate, 10 μL 2.5-fold enzyme solution was added, and incubated at room temperature for 10 min.
(§9) (5) Kinase reaction and stop
(§10) After incubation at 28° C. for a period of time (depending on kinase), 25 μL stop solution was added.
(§11) 4. Data on percent conversion was read by Caliper.
(§12) (1) Data on enzyme activity was obtained by Caliper program;
(§13) (2) Inhibition rate of enzyme activity was calculated from the data on enzyme activity by the following formula: Inhibition rate(%)=(maximal value−the measured value of a test compound)/(maximal value-minimal value)×100,
(§14) wherein, the maximal value represents the measured value of DMSO control; and the minimal value represents the measured value of blank control.
(§15) (3) Calculation of IC50 value by XLFit excel.

EGFR (d746-750)-T790M = EGFR (d746-750)-T790M (Homo sapiens (Human), UniProt P00533, DEL746-750/T790M); assay: Mobility Shift Assay, in vitro enzyme-inhibiting activity, EGFR (d746-750)-T790M; assay type: biochemical; conditions: Table 8; Km ATP; read-out: IC50 EGFR (d746-750)-790M
Chain of EGFR (d746-750)-T790M (P00533 other isoform, or with tags, fused parts or gaps T790M/del 1-668/del 746-750 limits assumed): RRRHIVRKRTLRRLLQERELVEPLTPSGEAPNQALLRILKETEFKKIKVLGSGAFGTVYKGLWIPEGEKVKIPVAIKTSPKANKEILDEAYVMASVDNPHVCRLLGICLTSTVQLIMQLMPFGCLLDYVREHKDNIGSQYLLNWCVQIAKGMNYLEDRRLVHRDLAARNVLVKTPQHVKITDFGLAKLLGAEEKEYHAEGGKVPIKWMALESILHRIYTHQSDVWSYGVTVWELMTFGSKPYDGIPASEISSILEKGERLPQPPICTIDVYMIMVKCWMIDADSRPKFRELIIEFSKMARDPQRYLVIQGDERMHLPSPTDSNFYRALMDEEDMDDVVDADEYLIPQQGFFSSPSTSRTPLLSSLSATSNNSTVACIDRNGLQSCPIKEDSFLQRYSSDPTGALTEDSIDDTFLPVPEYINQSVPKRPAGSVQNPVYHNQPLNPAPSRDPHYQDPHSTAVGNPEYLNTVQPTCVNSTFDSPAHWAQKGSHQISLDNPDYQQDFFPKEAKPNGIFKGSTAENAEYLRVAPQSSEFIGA
Procedure: as §1, §2, §3, §4, §5, §6, §7, §8, §9, §10, §11, §12, §13, §14, §15

[2] = Table 8, read-out: IC50 EGFRT790M-L858R

Question: What does the source list for `C=CC(=O)Nc1cccc(Nc2nc(Nc3ccc(C4CCN(C(C)=O)CC4)cc3OC)ncc2C(F)(F)F)c1` [Compound 2, N-(3-((2-((4-(1-acetylpiperidin-4-yl)-2-methoxyphenyl)amino)-5-(trifluoromethyl)pyrimidin-4-yl)amino)phenyl)acrylamide]?
Answer: pIC50 ([1]; Table 9): 6.98; Selectivity (A431/H1975) ([1]; Table 9): 17.7; pharmacokinetic properties (conclusion in words) (Pharmacokinetics in dog): good pharmacokinetic properties; AUC(0-t) (Pharmacokinetics in dog; iv, 0.5 mg/kg): 693 ng·h/mL; clearance (Pharmacokinetics in dog; iv, 0.5 mg/kg): 11.8 mL/min/kg; Vd (Pharmacokinetics in dog; iv, 0.5 mg/kg): 1.36 L/kg; AUC(0-t) (Pharmacokinetics in dog; po, 0.54 mg/kg): 528 ng·h/mL; Cmax (Pharmacokinetics in dog; po, 0.54 mg/kg): 211 ng/mL; Tmax (Pharmacokinetics in dog; po, 0.54 mg/kg): 0.5 h; bioavailability (Pharmacokinetics in dog; po, 0.54 mg/kg): 70%; pIC50 (EGFR T790M-L858R; Table 5): 8.60; Selectivity WT/T790M-L858R (EGFR T790M-L858R; Table 5): 140.2

Question: With `C=CC(=O)Nc1cccc(Nc2nc(Nc3ccc(C4CCN(S(C)(=O)=O)CC4)cc3OC)ncc2C(F)(F)F)c1` [Compound 27, N-(3-((2-((2-methoxy-4-(1-(methylsulfonyl)piperidin-4-yl)phenyl)amino)-5-(trifluoromethyl)pyrimidin-4-yl)amino)phenyl)acrylamide] as the molecule, how does the pIC50 (EGFR (d746-750)-T790M) read?
Answer: Its pIC50 is 8.44.

Question: And the pIC50 ([1]; Table 10, unit inferred)?
Answer: Its pIC50 is 6.56.

Question: What about the “Selectivity (A431/H1975)” value ([1]; Table 10) of the same molecule?
Answer: The value was 10.0.

Question: What about the pIC50 (EGFR T790M-L858R; [2]) of the same molecule?
Answer: The pIC50 was 8.01.

Question: With `C=CC(=O)Nc1cccc(Nc2nc(Nc3ccc(N4CCC(N5CCOCC5)CC4)cc3OC)ncc2C(F)(F)F)c1` [Compound 28, N-(3-((2-((2-methoxy-4-(4-morpholinopiperidin-1-yl)phenyl)amino)-5-(trifluoromethyl)pyrimidin-4-yl)amino)phenyl)acrylamide] as the molecule, how does the pIC50 (EGFR (d746-750)-T790M) read?
Answer: The pIC50 was 9.10.

Question: What about the pIC50 ([1]; Table 10, unit inferred) of the same molecule?
Answer: Its pIC50 is 7.12.

Question: What about the “Selectivity (A431/H1975)” value ([1]; Table 10) of the same molecule?
Answer: Its value is 9.4.

Question: What about the “pharmacokinetic properties (conclusion in words)” value (Pharmacokinetics in dog) of the same molecule?
Answer: Its value is “good pharmacokinetic properties”.

Question: And the AUC(0-t) (Pharmacokinetics in dog; iv, 0.5 mg/kg)?
Answer: The AUC(0-t) was 1580 ng·h/mL.

Question: And the clearance (Pharmacokinetics in dog; iv, 0.5 mg/kg)?
Answer: The clearance was 5.5 mL/min/kg.

Question: And the Vd (Pharmacokinetics in dog; iv, 0.5 mg/kg)?
Answer: The Vd was 1.1 L/kg.

Question: And the AUC(0-t) (Pharmacokinetics in dog; po, 1.28 mg/kg)?
Answer: The AUC(0-t) was 1820 ng·h/mL.

Question: And the Cmax (Pharmacokinetics in dog; po, 1.28 mg/kg)?
Answer: Its Cmax is 523 ng/mL.

Question: And the Tmax (Pharmacokinetics in dog; po, 1.28 mg/kg)?
Answer: The Tmax was 1 h.

Question: What about the bioavailability (Pharmacokinetics in dog; po, 1.28 mg/kg) of the same molecule?
Answer: The bioavailability was 46%.

Question: What about the pIC50 (EGFR T790M-L858R; [2]) of the same molecule?
Answer: Its pIC50 is 8.82.

Question: With `C=CC(=O)Nc1cccc(Nc2nc(Nc3ccc(N4CC5(CN(C(C)=O)C5)C4)cc3OC)ncc2C(F)(F)F)c1` [Compound 31, N-(3-((2-((4-(6-acetyl-2,6-diazaspiro[3.3]heptan-2-yl)-2-methoxyphenyl)amino)-5-(trifluoromethyl)pyrimidin-4-yl)amino)phenyl)acrylamide] as the molecule, how does the pIC50 ([1]; Table 10, unit inferred) read?
Answer: The pIC50 was 6.56.

Question: And the “Selectivity (A431/H1975)” value ([1]; Table 10)?
Answer: Its value is 9.8.

Question: What about the “pharmacokinetic properties (conclusion in words)” value (Pharmacokinetics in dog) of the same molecule?
Answer: The value was “good pharmacokinetic properties”.

Question: And the AUC(0-t) (Pharmacokinetics in dog; iv, 0.5 mg/kg)?
Answer: The AUC(0-t) was 1270 ng·h/mL.

Question: What about the clearance (Pharmacokinetics in dog; iv, 0.5 mg/kg) of the same molecule?
Answer: The clearance was 6.67 mL/min/kg.

Question: What about the Vd (Pharmacokinetics in dog; iv, 0.5 mg/kg) of the same molecule?
Answer: Its Vd is 0.38 L/kg.

Question: And the AUC(0-t) (Pharmacokinetics in dog; po, 1 mg/kg)?
Answer: The AUC(0-t) was 545 ng·h/mL.

Question: What about the Cmax (Pharmacokinetics in dog; po, 1 mg/kg) of the same molecule?
Answer: Its Cmax is 261 ng/mL.

Question: What about the Tmax (Pharmacokinetics in dog; po, 1 mg/kg) of the same molecule?
Answer: The Tmax was 1 h.

Question: And the bioavailability (Pharmacokinetics in dog; po, 1 mg/kg)?
Answer: Its bioavailability is 23%.

Question: And the pIC50 (EGFR T790M-L858R; Table 7)?
Answer: The pIC50 was 8.33.

Question: And the “Selectivity WT/T790M-L858R” value (EGFR T790M-L858R; Table 7)?
Answer: Its value is 44.4.
